Laboratory results: ChEMBL document CHEMBL5058644, “Data for DCP probe JNJ-39758979” (2022)

Assays:
[1] = biological target: Muscle, skeletal receptor tyrosine-protein kinase (Homo sapiens) (UniProt O15146); assay: MuSK(h) Millipore kinase panel; conditions: Compound concentration 10.0 uM
[2] = biological target: Proto-oncogene tyrosine-protein kinase Src (Homo sapiens) (UniProt P12931); assay: cSRC(h) Millipore kinase panel; conditions: Compound concentration 10.0 uM
[3] = biological target: Neurotensin receptor type 1 (Homo sapiens) (UniProt P30989); assay: NT1 (h) (NTS1) CEREP panel; conditions: Compound concentration 1.0 uM
Chain of Neurotensin receptor type 1 (Homo sapiens) (P30989 whole entry): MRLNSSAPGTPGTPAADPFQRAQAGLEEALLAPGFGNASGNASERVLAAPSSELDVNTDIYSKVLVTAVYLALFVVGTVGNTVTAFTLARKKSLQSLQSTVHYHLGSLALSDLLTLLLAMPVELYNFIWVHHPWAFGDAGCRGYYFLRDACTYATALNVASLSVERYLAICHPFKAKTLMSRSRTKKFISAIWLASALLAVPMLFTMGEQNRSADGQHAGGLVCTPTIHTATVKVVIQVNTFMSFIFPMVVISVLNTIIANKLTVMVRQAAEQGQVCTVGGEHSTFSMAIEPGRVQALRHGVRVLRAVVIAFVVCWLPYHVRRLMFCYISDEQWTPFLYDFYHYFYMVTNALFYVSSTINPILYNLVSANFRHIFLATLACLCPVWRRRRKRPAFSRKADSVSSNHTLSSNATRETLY

[4] = biological target: 5-hydroxytryptamine receptor 7 (Homo sapiens) (UniProt P34969); assay: 5-HT7 (h) CEREP panel; conditions: Compound concentration 1.0 uM
Chain of 5-hydroxytryptamine receptor 7 (Homo sapiens) (P34969 whole entry): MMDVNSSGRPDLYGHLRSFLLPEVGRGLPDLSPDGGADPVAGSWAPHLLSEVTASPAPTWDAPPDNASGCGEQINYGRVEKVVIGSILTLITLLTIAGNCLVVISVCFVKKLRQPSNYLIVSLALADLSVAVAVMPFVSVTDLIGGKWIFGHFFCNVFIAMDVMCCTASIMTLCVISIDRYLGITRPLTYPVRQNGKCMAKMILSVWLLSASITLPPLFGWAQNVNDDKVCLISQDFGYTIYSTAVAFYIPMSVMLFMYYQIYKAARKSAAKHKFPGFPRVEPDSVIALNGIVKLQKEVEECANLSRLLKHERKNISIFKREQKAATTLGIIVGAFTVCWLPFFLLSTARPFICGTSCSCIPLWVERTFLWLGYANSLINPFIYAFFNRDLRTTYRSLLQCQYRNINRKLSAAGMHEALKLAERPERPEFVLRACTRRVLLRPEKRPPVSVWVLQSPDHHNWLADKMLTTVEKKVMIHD

[5] = biological target: Histamine H2 receptor (Homo sapiens) (UniProt P25021); assay: H2 (h) CEREP panel; conditions: Compound concentration 1.0 uM
[6] = biological target: C-C chemokine receptor type 1 (Homo sapiens) (UniProt P32246); assay: CCR1 (h) CEREP panel; conditions: Compound concentration 1.0 uM
[7] = biological target: RAF proto-oncogene serine/threonine-protein kinase (Homo sapiens) (UniProt P04049); assay: c-RAF(h) Millipore kinase panel; conditions: Compound concentration 10.0 uM
[8] = biological target: Adrenergic receptor alpha-1 (Homo sapiens) (UniProt P35348+P25100+P35368); assay: alpha 1 (non-selective) CEREP panel; conditions: Compound concentration 1.0 uM
[9] = biological target: Adenosine receptor A2a (Homo sapiens) (UniProt P29274); assay: A2A (h) CEREP panel; conditions: Compound concentration 1.0 uM
[10] = biological target: Focal adhesion kinase 1 (Homo sapiens) (UniProt Q05397); assay: FAK(h) Millipore kinase panel; conditions: Compound concentration 10.0 uM
[11] = biological target: Calcium/calmodulin-dependent protein kinase type 1 (Homo sapiens) (UniProt Q14012); assay: CaMKI(h) Millipore kinase panel; conditions: Compound concentration 10.0 uM
Chain of Calcium/calmodulin-dependent protein kinase type 1 (Homo sapiens) (Q14012 whole entry, looked up): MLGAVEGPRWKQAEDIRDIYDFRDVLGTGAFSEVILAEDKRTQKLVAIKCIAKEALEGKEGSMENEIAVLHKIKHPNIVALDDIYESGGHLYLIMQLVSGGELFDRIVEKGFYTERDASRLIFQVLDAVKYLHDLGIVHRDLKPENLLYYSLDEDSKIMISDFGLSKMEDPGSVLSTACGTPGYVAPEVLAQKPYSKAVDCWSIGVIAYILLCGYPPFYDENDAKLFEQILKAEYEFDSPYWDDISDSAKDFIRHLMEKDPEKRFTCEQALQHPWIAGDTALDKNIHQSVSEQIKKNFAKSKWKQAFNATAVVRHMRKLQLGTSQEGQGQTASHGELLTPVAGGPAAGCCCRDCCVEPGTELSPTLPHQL

[12] = BZD (central) CEREP panel; conditions: Compound concentration 1.0 uM
[13] = biological target: Neuropeptide Y receptor type 2 (Homo sapiens) (UniProt P49146); assay: Y2 (h) CEREP panel; conditions: Compound concentration 1.0 uM
[14] = biological target: Casein kinase I isoform delta (Homo sapiens) (UniProt P48730); assay: CK1δ(h) Millipore kinase panel; conditions: Compound concentration 10.0 uM
[15] = biological target: Neuropeptide Y receptor type 1 (Homo sapiens) (UniProt P25929); assay: Y1 (h) CEREP panel; conditions: Compound concentration 1.0 uM
Chain of Neuropeptide Y receptor type 1 (Homo sapiens) (P25929 whole entry): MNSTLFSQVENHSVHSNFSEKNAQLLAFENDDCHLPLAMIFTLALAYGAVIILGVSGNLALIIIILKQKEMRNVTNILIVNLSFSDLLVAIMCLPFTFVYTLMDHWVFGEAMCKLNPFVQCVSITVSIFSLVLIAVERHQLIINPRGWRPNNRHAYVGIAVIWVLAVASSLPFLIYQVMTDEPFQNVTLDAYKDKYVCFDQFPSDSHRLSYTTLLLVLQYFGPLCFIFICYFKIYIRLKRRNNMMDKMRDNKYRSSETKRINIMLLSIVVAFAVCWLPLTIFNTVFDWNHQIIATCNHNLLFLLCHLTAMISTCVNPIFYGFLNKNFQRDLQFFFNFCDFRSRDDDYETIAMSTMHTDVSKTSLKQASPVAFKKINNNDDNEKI

[16] = biological target: Ribosomal protein S6 kinase alpha-5 (Homo sapiens) (UniProt O75582); assay: MSK1(h) Millipore kinase panel; conditions: Compound concentration 10.0 uM
[17] = biological target: Cholecystokinin receptor type A (Homo sapiens) (UniProt P32238); assay: CCKA (h) (CCK1) CEREP panel; conditions: Compound concentration 1.0 uM
Rattus norvegicus = organism: Rattus norvegicus; assay: AMPK(r) Millipore kinase panel; conditions: Compound concentration 10.0 uM
[18] = biological target: D(2) dopamine receptor (Homo sapiens) (UniProt P14416); assay: D2 (h) CEREP panel; conditions: Compound concentration 1.0 uM
[19] = biological target: Kappa-type opioid receptor (Homo sapiens) (UniProt P41145); assay: kappa (h) CEREP panel; conditions: Compound concentration 1.0 uM
Chain of Kappa-type opioid receptor (Homo sapiens) (P41145 whole entry): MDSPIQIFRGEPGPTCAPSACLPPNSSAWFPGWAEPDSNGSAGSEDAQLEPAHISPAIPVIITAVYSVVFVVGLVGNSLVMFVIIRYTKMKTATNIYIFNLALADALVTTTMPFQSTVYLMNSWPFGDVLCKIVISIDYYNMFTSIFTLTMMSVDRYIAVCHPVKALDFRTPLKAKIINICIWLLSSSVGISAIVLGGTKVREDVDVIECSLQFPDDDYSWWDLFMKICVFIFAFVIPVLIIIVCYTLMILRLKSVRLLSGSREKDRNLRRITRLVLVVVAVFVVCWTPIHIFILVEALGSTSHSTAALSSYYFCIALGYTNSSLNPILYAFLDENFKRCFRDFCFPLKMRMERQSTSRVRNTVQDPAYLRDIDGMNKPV

[20] = biological target: Cyclin-dependent kinase 2 (Homo sapiens) (UniProt P24941); assay: CDK2/cyclinA(h) Millipore kinase panel; conditions: Compound concentration 10.0 uM
[21] = biological target: Galanin receptor type 2 (Homo sapiens) (UniProt O43603); assay: GAL2 (h) CEREP panel; conditions: Compound concentration 1.0 uM
[22] = biological target: Mu-type opioid receptor (Homo sapiens) (UniProt P35372); assay: mu (h) CEREP panel; conditions: Compound concentration 1.0 uM
Chain of Mu-type opioid receptor (Homo sapiens) (P35372 whole entry): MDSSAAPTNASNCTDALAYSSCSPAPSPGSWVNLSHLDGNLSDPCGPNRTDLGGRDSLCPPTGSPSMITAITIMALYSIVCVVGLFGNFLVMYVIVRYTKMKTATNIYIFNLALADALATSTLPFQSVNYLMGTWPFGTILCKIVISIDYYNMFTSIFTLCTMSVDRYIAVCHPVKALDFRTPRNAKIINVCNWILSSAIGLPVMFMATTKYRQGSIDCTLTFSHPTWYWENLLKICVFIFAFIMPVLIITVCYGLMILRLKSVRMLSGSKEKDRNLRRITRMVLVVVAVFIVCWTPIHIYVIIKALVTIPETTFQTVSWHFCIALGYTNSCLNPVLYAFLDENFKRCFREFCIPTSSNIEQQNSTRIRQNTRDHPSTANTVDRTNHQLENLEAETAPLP

[23] = Cl- channel CEREP panel; conditions: Compound concentration 1.0 uM
[24] = biological target: 5-hydroxytryptamine receptor 2A (Homo sapiens) (UniProt P28223); assay: 5-HT2A (h) CEREP panel; conditions: Compound concentration 1.0 uM
Chain of 5-hydroxytryptamine receptor 2A (Homo sapiens) (P28223 whole entry): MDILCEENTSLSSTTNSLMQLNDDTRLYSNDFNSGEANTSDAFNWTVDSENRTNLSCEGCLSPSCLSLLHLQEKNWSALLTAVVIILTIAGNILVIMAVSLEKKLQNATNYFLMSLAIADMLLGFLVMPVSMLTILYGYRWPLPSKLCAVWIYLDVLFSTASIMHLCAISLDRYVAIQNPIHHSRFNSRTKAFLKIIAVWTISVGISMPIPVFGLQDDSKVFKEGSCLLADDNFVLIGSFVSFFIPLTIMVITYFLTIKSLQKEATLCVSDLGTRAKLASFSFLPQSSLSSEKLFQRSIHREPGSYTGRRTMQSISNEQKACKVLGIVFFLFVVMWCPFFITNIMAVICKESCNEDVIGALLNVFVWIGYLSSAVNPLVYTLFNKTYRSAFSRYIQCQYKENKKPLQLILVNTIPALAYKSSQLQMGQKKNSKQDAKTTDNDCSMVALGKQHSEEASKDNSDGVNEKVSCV

[25] = biological target: Sodium-dependent dopamine transporter (Homo sapiens) (UniProt Q01959); assay: DA transporter (h) CEREP panel; conditions: Compound concentration 1.0 uM
[26] = biological target: 5-hydroxytryptamine receptor 1A (Homo sapiens) (UniProt P08908); assay: 5-HT1A (h) CEREP panel; conditions: Compound concentration 1.0 uM
[27] = biological target: Ephrin type-A receptor 1 (Homo sapiens) (UniProt P21709); assay: EphA1(h) Millipore kinase panel; conditions: Compound concentration 10.0 uM
[28] = biological target: Serine/threonine-protein kinase VRK2 (Homo sapiens) (UniProt Q86Y07); assay: VRK2(h) Millipore kinase panel; conditions: Compound concentration 10.0 uM
Chain of Serine/threonine-protein kinase VRK2 (Homo sapiens) (Q86Y07 whole entry): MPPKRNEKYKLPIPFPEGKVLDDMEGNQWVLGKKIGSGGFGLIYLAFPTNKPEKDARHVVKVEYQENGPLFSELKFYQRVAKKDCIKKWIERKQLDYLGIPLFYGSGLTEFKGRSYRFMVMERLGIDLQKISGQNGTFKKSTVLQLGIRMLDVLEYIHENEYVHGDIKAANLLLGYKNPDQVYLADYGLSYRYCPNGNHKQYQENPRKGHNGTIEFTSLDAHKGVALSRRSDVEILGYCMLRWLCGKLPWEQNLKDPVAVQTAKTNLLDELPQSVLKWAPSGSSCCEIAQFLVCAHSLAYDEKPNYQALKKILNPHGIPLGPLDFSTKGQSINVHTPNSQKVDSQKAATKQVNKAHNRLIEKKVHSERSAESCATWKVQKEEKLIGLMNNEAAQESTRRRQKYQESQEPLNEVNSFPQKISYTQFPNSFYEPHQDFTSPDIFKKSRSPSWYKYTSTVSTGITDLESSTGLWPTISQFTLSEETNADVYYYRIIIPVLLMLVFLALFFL

[29] = biological target: Angiopoietin-1 receptor (Homo sapiens) (UniProt Q02763); assay: Tie2(h) Millipore kinase panel; conditions: Compound concentration 10.0 uM
[30] = biological target: Tyrosine-protein kinase ABL1 (Homo sapiens) (UniProt P00519); assay: Abl(h) Millipore kinase panel; conditions: Compound concentration 10.0 uM
[31] = MT1 CEREP panel; conditions: Compound concentration 1.0 uM
[32] = SK+Ca channel CEREP panel; conditions: Compound concentration 1.0 uM
[33] = biological target: 5-hydroxytryptamine receptor 6 (Homo sapiens) (UniProt P50406); assay: 5-HT6 (h) (5-ht6) CEREP panel; conditions: Compound concentration 1.0 uM
[34] = biological target: C-X-C chemokine receptor type 2 (Homo sapiens) (UniProt P25025); assay: IL-8B (h) (CXCR2) CEREP panel; conditions: Compound concentration 1.0 uM
Chain of C-X-C chemokine receptor type 2 (Homo sapiens) (P25025 whole entry): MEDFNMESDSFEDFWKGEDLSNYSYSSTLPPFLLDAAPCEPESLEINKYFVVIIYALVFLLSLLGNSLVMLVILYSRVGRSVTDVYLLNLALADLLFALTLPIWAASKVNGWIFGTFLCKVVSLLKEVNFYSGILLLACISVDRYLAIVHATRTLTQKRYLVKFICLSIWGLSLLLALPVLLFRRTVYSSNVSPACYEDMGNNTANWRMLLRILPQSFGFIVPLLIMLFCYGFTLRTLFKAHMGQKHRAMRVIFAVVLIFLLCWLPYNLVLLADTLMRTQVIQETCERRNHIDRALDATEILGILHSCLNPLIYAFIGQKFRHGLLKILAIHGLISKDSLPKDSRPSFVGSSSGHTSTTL

[35] = biological target: Serine/threonine-protein kinase STK11 (Homo sapiens) (UniProt Q15831); assay: LKB1(h) Millipore kinase panel; conditions: Compound concentration 10.0 uM
[36] = biological target: Epidermal growth factor receptor (Homo sapiens) (UniProt P00533); assay: EGFR(h) Millipore kinase panel; conditions: Compound concentration 10.0 uM
[37] = biological target: Muscarinic acetylcholine receptor M2 (Homo sapiens) (UniProt P08172); assay: M2 (h) CEREP panel; conditions: Compound concentration 1.0 uM
Chain of Muscarinic acetylcholine receptor M2 (Homo sapiens) (P08172 whole entry): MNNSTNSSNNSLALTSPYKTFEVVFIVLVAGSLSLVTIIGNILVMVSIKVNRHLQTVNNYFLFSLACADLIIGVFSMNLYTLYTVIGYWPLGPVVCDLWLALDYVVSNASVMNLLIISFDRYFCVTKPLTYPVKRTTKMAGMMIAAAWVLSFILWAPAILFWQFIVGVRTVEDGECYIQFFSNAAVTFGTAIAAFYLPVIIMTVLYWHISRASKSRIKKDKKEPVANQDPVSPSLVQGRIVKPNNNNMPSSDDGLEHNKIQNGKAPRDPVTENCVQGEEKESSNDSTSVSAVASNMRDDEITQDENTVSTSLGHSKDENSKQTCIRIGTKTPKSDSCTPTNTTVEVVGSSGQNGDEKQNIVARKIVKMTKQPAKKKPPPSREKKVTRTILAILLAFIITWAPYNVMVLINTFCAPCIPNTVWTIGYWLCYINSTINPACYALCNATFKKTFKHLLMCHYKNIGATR

[38] = biological target: Interleukin-1 receptor-associated kinase 1 (Homo sapiens) (UniProt P51617); assay: IRAK1(h) Millipore kinase panel; conditions: Compound concentration 10.0 uM
[39] = biological target: Tyrosine-protein kinase SYK (Homo sapiens) (UniProt P43405); assay: Syk(h) Millipore kinase panel; conditions: Compound concentration 10.0 uM
[40] = biological target: Adenosine receptor A1 (Homo sapiens) (UniProt P30542); assay: A1 (h) CEREP panel; conditions: Compound concentration 1.0 uM
[41] = biological target: 5-hydroxytryptamine receptor 3A (Homo sapiens) (UniProt P46098); assay: 5-HT3 (h) CEREP panel; conditions: Compound concentration 1.0 uM
[42] = biological target: Proto-oncogene tyrosine-protein kinase ROS (Homo sapiens) (UniProt P08922); assay: Ros(h) Millipore kinase panel; conditions: Compound concentration 10.0 uM
[43] = biological target: Serine/threonine-protein kinase WNK2 (Homo sapiens) (UniProt Q9Y3S1); assay: WNK2(h) Millipore kinase panel; conditions: Compound concentration 10.0 uM
[44] = biological target: Tyrosine-protein kinase Fer (Homo sapiens) (UniProt P16591); assay: Fer(h) Millipore kinase panel; conditions: Compound concentration 10.0 uM
[45] = biological target: Testis-specific serine/threonine-protein kinase 1 (Homo sapiens) (UniProt Q9BXA7); assay: TSSK1(h) Millipore kinase panel; conditions: Compound concentration 10.0 uM
[46] = biological target: RAC-beta serine/threonine-protein kinase (Homo sapiens) (UniProt P31751); assay: PKBβ(h) Millipore kinase panel; conditions: Compound concentration 10.0 uM
[47] = biological target: RAC-gamma serine/threonine-protein kinase (Homo sapiens) (UniProt Q9Y243); assay: PKBγ(h) Millipore kinase panel; conditions: Compound concentration 10.0 uM
Chain of RAC-gamma serine/threonine-protein kinase (Homo sapiens) (Q9Y243 whole entry): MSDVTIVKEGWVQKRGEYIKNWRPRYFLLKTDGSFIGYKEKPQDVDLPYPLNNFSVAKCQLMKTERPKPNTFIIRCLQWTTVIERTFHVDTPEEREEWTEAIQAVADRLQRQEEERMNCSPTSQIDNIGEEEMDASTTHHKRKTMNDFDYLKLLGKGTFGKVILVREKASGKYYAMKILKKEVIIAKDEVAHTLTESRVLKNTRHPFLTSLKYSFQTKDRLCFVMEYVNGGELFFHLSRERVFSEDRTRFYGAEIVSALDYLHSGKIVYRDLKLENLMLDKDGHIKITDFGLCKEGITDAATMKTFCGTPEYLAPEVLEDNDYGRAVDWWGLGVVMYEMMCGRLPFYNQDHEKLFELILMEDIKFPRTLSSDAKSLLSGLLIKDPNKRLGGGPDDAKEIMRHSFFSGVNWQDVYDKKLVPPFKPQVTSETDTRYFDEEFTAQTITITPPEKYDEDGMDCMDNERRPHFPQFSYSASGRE

[48] = biological target: Vasopressin V1a receptor (Homo sapiens) (UniProt P37288); assay: V1A (h) CEREP panel; conditions: Compound concentration 1.0 uM
[49] = K+V channel CEREP panel; conditions: Compound concentration 1.0 uM

Measured: inhibition

CC(C)c1cc(N2CC[C@@H](N)C2)nc(N)n1
inactive: [1] -9% | [2] -5% | [3] < 10% | [4] < 10% | [5] < 10% | [6] < 10% | [7] -5% | [8] < 10% | [9] < 10% | [10] -1% | [11] 3% | [12] < 10% | [13] < 10% | [14] 1% | [15] < 10% | [16] 6% | [17] < 10% | Rattus norvegicus 1% | [18] < 10% | [19] < 10% | [20] -3% | [21] < 10% | [22] < 10% | [23] < 10% | [24] < 10% | [25] 18% | [26] < 10% | [27] -6% | [28] -2% | [29] 12% | [30] -2% | [31] < 10% | [32] < 10% | [33] < 10% | [34] < 10% | [35] 0% | [36] 2% | [37] < 10% | [38] -6% | [39] 3% | [40] < 10% | [41] < 10% | [42] 6% | [43] -5% | [44] -8% | [45] 16% | [46] -5% | [47] -3% | [48] < 10% | [49] < 10%
